Laboratory results: ChEMBL document CHEMBL1156885, “Structure-based discovery of novel chemotypes for adenosine A(2A) receptor antagonists” (J Med Chem, 2010)

Experiments:
Adenosine receptor A2a [1] = biological target: T1, Adenosine receptor A2a (Homo sapiens, UniProt P29274); test: Inhibition of human adenosine 2A receptor
Adenosine receptor A2a [2] = biological target: T1, Adenosine receptor A2a; test: Inhibition of human adenosine 2A receptor at 2 uM
Adenosine receptor A2a [3] = biological target: T1, Adenosine receptor A2a; test: Inhibition of human adenosine 2A receptor at 32 uM

T1 sequence (P29274 whole entry): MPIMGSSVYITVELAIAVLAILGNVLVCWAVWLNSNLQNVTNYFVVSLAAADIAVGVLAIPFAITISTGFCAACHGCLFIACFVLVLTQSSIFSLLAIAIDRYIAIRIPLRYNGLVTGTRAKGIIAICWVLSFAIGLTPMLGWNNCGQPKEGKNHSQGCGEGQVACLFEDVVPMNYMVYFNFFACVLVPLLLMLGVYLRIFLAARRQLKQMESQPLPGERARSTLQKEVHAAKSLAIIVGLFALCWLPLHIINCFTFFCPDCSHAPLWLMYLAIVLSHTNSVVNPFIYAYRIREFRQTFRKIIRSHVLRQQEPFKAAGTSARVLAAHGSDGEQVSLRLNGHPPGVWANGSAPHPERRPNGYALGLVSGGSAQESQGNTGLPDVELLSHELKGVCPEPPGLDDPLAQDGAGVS

| Ki (Adenosine receptor A2a [1]) [µM] | SMILES | other results |
| --- | --- | --- |
| > 100 | Nc1c(Nc2ccccc2C(=O)O)c2ccccc2oc1=O | – |
| > 100 | Cc1ccccc1NC(=O)CSCc1nc(N)nc(Nc2ccccc2C)n1 | – |
| 1 | Nc1c(Oc2ccccc2)ccc2c1C(=O)c1ccccc1C2=O | – |
| 2.9 | Cc1ccc(N2C(=O)c3cccc(N)c3C2=O)cc1 | – |
| 0.8 | Cc1cccc(NC2=C(N)C(=O)c3ccccc3C2=O)c1 | – |
| 6 | Cc1ccc(Nc2nc(N)nc(CSC(C)C(=O)NCc3ccccc3Cl)n2)cc1 (stereo unspecified) | – |
| 2.2 | Nc1c(C(=O)c2ccccc2)oc2ccc(Br)cc12 | – |
| 0.63 | N#Cc1c(N)nc2c(C(N)=O)c(Nc3ccccc3)sc2c1-c1ccccc1 | – |
| > 100 | Cc1nc2ccccc2cc1C(=O)OCC(=O)c1c(N)n(C)c(=O)[nH]c1=O | – |
| > 100 | CC(Sc1nc(N)c(C(=O)Nc2ccccc2)cc1C#N)C(=O)NCc1ccccc1Cl (stereo unspecified) | – |
| 1.9 | Nc1c(Sc2ccccc2)cc(Sc2ccccc2)c2c1C(=O)c1ccccc1C2=O | – |
| > 100 | Nc1nc(CSc2nnc3ccccn23)nc(Nc2ccc(F)cc2)n1 | – |
| 0.06 | N#Cc1c(N)nc2c(oc3ccccc32)c1-c1ccccc1 | inhibition (Adenosine receptor A2a [3]): 91% |
| 0.64 | Cn1c(=O)cc2c3c(c(N)ccc31)C(=O)c1ccccc1-2 | – |
| 3.2 | Nc1cccc2c1C(=O)c1ccccc1C2=O | – |
| 25 | COc1ccc(-n2ccnc2SCC(=O)c2c(N)n(C3CC3)c(=O)[nH]c2=O)cc1 | – |
| 0.32 | Nc1ccc(N)c2c1C(=O)c1ccccc1C2=O | – |
| > 100 | Nc1c(C(=O)Nc2ccccc2Cl)sc2ncccc12 | – |
| 0.53 | COc1ccc(N)c2c1C(=O)c1ccccc1C2=O | – |
| > 100 | CN(C(=O)CSc1nc(N)nn1-c1ccccc1)c1ccccc1 | – |
| 0.56 | NC1=C(Nc2cccc(C(F)(F)F)c2)C(=O)c2ccccc2C1=O | – |
| 1.3 | CCCc1ccc2c(N)c(C(=O)c3ccccc3)sc2n1 | – |
| > 100 | Nc1c(/C=N/c2ccccc2)ccc2c1C(=O)c1ccccc1C2=O | – |

Further lines, the molecule ahead of its results:

| SMILES | Ki (Adenosine receptor A2a [1]) [µM] | other results |
| --- | --- | --- |
| CC(=O)c1snc(Nc2cc(Cl)ccc2F)c1N | 41 | – |
| COCCOC(=O)c1sc(N)c(C#N)c1C | 17 | – |
| Cc1cc2oc(N)c(C=O)c(=O)c2cc1C | > 100 | – |
| COc1ccc(Cl)cc1Nc1nc(N)nc(-c2oc3ccccc3c2C)n1 | 0.032 | inhibition (Adenosine receptor A2a [2]): 80% |
| CCc1nc2sc(C(=O)c3cccc(Cl)c3)c(N)c2cc1C | 9.1 | – |
| CCOC(=O)c1cnc(SCC(=O)O)nc1N | > 100 | – |
| CCOC(=O)c1cc(-c2ccc(Br)cc2)cc2c(N)sc(Br)c12 | > 100 | – |
| Nc1c(C(=O)Nc2ccc(Cl)cc2)sc2ncccc12 | 6.9 | – |
| N#CC1=C(NC(=O)CSc2ncc(C#N)c(N)n2)SC2CCCCC12 (stereo unspecified) | 6.1 | – |
| Cc1ccc2oc(=N)c3c(N)nc(-c4ccc5c(c4)OCO5)cc3c2c1 | > 100 | – |
| Nc1ccc(Cl)c2c1C(=O)c1ccccc1C2=O | 0.25 | – |
| COc1ccc(Nc2nc(N)nc(CSc3nnc(N)s3)n2)cc1 | 14 | – |
| Nc1c(C(=O)Nc2ccc([N+](=O)[O-])cc2)sc2nc3c(cc12)CCCC3 | 15 | – |
| CC(=O)Oc1cccc(-c2nc(C(N)=O)c(N)o2)c1 | 36 | – |
| Cc1ccc(Nc2nc(N)nc(CN3C(=O)NC4(CCCCC4)C3=O)n2)cc1 | 2.8 | – |
| Nc1c(C(=O)Nc2nccs2)sc2nc3c(cc12)C(=O)CCC3 | 1 | – |

| SMILES | Ki (Adenosine receptor A2a [1]) [µM] | other results |
| --- | --- | --- |
| Cc1ccc(C(=O)CSc2nc(N)c(C#N)c(-c3cccs3)c2C#N)c(C)c1 | > 100 | – |
| Nc1nc(CSc2nnc(N)s2)nc(Nc2ccc(F)cc2)n1 | 13 | – |
| Nc1ncnc2[nH]c(SCCC(=O)O)nc12 | > 100 | – |
| Cc1ccc(Nc2nc(N)nc(CSCC(=O)NC3CC3)n2)cc1 | > 100 | – |
| CCOC(=O)c1cnc(SCCC(N)=O)nc1N | > 100 | – |
| CC(=O)c1ccc(NC(=O)c2sc3nc4c(cc3c2N)CCCC4)cc1 | > 100 | – |
| Nc1nc(SCCCCC(=O)O)c2[nH]cnc2n1 | > 100 | – |
| Cc1ccc(Nc2nc(N)nc(CSC(C)C(=O)N3CCCCCC3)n2)cc1 (stereo unspecified) | 33 | – |
| Cc1ccc(Nc2nc(N)nc(CSCCO)n2)cc1 | 17 | – |
| Nc1ncnc2sc3c(c12)CCN(C(=O)CN1CSCC1=O)C3 | > 100 | – |
| Nc1ccc(-c2nc3c(N)cccc3[nH]2)cc1 | > 100 | – |
| COC(=O)c1c(N)oc2c(-c3ccc(C)cc3)c3c(C(=O)OC)c(N)oc3cc12 | > 100 | – |
| Nc1c(C(=O)Nc2ccccc2F)sc2nc3c(cc12)C(=O)CCC3 | 0.3 | – |
| Nc1c(C(=O)Nc2ccc(F)cc2)sc2nc3c(cc12)N1CCC3CC1 | > 100 | – |
| CN1CCc2nc3sc(C(=O)Nc4ccc(Cl)cc4)c(N)c3cc2C1 | 2.7 | – |
